Molecular target: T1, PHD2 (Homo sapiens, UniProt Q9GZT9)
T1 construct: FLAG-tagged full length PHD2 expressed in and purified from baculovirus-infected Sf9 cells; FLAG; made in house; host or cells: baculovirus-infected Sf9 cells
Experiment: PHD2 inhibition assay (time resolved fluorescence, HIF-1α peptide hydroxylation / VHL complex detection)
Assay type: biochemical
Conditions: FLAG-tagged full length PHD2; 0.2 μM 2-oxoglutarate, 0.5 μM HIF-1α peptide
Protocol: To each well of a 96-well plate was added 1 μL of test compound in DMSO and 20 μl of assay buffer (50 mM Iris pH 7.4/0.01% Tween-20/0.1 mg/ml bovine serum albumin/10 μM ferrous sulfate/1 mM sodium ascorbate/20 μg/ml catalase) containing 0.15 μg/ml FLAG-tagged full length PHD2 expressed in and purified from baculovirus-infected Sf9 cells. After a 30 min preincubation at room temperature, the enzymatic reactions were initiated by the addition of […] of substrates (final concentrations of 0.2 μM 2-oxoglutarate and 0.5 μM HIF-1α peptide biotinyl-DLDLEMLAPYIPMDDDFQL (SEQ ID NO:1)). After 2 hr at room temperature, the reactions were terminated and signals were developed by the addition of a 25 μL quench/detection mix to a final concentration of 1 mM ortho-phenanthroline, 0.1 mM EDTA, 0.5 nM anti-(His)6 LANCE reagent (Perkin-Elmer Life Sciences), 100 nM AF647-labeled streptavidin (Invitrogen), and 2 μg/ml (His)-6-VHL complex (S. Tan(2001) Protein Expr. Purif. 21, 224-234). The ratio of time resolved fluorescence signals at 665 and 620 nm was determined, and percent inhibition was calculated relative to an uninhibited control sample run in parallel.

T1 sequence (Q9GZT9 whole entry, species assumed): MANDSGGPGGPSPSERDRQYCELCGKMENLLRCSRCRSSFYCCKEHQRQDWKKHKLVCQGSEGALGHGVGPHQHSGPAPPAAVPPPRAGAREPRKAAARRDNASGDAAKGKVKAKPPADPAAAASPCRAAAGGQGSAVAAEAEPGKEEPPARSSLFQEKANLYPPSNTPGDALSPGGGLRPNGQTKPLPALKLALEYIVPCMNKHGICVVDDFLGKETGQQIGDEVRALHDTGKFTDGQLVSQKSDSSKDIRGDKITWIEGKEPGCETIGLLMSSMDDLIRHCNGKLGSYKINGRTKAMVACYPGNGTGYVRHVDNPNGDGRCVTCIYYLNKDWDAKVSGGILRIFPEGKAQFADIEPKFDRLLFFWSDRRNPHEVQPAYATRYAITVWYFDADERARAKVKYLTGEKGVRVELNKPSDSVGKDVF

Row | SMILES | IC50 [µM]
1 | O=C(Nc1cnc(-n2cccn2)nc1O)C(c1ccccc1)c1ccccc1 [Compound 2-1, N-(4-hydroxy-2-(1H-pyrazol-1-yl)pyrimidin-5-yl)-2,2-diphenylacetamide] | 0.0005 to 0.02
2 | O=C(Nc1cnc(-n2cccn2)nc1O)c1ccccc1Cl [Compound 3-1, 2-chloro-N-(4-hydroxy-2-(1H-pyrazol-1-yl)pyrimidin-5-yl)benzamide] | 0.0005 to 0.02
3 | O=C(Nc1cnc(-n2cccn2)nc1O)c1cccc(Cl)c1 [Compound 3-2, 3-chloro-N-(4-hydroxy-2-(1H-pyrazol-1-yl)pyrimidin-5-yl)benzamide] | 0.0005 to 0.02
4 | O=C(Nc1cnc(-n2cccn2)nc1O)c1ccc(Cl)cc1 [Compound 3-3, 4-chloro-N-(4-hydroxy-2-(1H-pyrazol-1-yl)pyrimidin-5-yl)benzamide] | 0.02 to 0.1
5 | O=C(Nc1cnc(-n2cccn2)nc1O)c1cccc(C(F)(F)F)c1 [Compound 3-4, 3-(trifluoromethyl)-N-(4-hydroxy-2-(1H-pyrazol-1-yl)pyrimidin-5-yl)benzamide] | 0.0005 to 0.02
6 | O=C(Nc1cnc(-n2cccn2)nc1O)c1ccc(C(F)(F)F)cc1 [Compound 3-5, 4-(trifluoromethyl)-N-(4-hydroxy-2-(1H-pyrazol-1-yl)pyrimidin-5-yl)benzamide] | 0.02 to 0.1
7 | O=C(Cc1ccc2ccccc2c1)Nc1cnc(-n2cccn2)nc1O [Compound 3-6, N-(4-hydroxy-2-(1H-pyrazol-1-yl)pyrimidin-5-yl)-2-(naphthalen-3-yl)acetamide] | 0.0005 to 0.02
8 | N#Cc1ccccc1C(=O)Nc1cnc(-n2cccn2)nc1O [Compound 3-7, 2-cyano-N-(4-hydroxy-2-(1H-pyrazol-1-yl)pyrimidin-5-yl)benzamide] | 0.1 to 10
9 | N#Cc1cccc(C(=O)Nc2cnc(-n3cccn3)nc2O)c1 [Compound 3-8, 3-cyano-N-(4-hydroxy-2-(1H-pyrazol-1-yl)pyrimidin-5-yl)benzamide] | 0.02 to 0.1
10 | N#Cc1ccc(C(=O)Nc2cnc(-n3cccn3)nc2O)cc1 [Compound 3-9, 4-cyano-N-(4-hydroxy-2-(1H-pyrazol-1-yl)pyrimidin-5-yl)benzamide] | 0.02 to 0.1
11 | O=C(Nc1cnc(-n2cccn2)nc1O)c1ccccc1C(F)(F)F [Compound 3-10, 2-(trifluoromethyl)-N-(4-hydroxy-2-(1H-pyrazol-1-yl)pyrimidin-5-yl)benzamide] | 0.0005 to 0.02
12 | COc1ccccc1C(=O)Nc1cnc(-n2cccn2)nc1O [Compound 3-11, N-(4-hydroxy-2-(1H-pyrazol-1-yl)pyrimidin-5-yl)-2-methoxybenzamide] | 0.02 to 0.1
13 | COc1cccc(C(=O)Nc2cnc(-n3cccn3)nc2O)c1 [Compound 3-12, N-(4-hydroxy-2-(1H-pyrazol-1-yl)pyrimidin-5-yl)-3-methoxybenzamide] | 0.02 to 0.1
14 | COc1ccc(C(=O)Nc2cnc(-n3cccn3)nc2O)cc1 [Compound 3-13, N-(4-hydroxy-2-(1H-pyrazol-1-yl)pyrimidin-5-yl)-4-methoxybenzamide] | 0.02 to 0.1
15 | CS(=O)(=O)c1ccccc1C(=O)Nc1cnc(-n2cccn2)nc1O [Compound 3-14, N-(4-hydroxy-2-(1H-pyrazol-1-yl)pyrimidin-5-yl)-2-(methylsulfonyl)benzamide] | 0.1 to 10
16 | CS(=O)(=O)c1cccc(C(=O)Nc2cnc(-n3cccn3)nc2O)c1 [Compound 3-15, N-(4-hydroxy-2-(1H-pyrazol-1-yl)pyrimidin-5-yl)-3-(methylsulfonyl)benzamide] | 0.02 to 0.1
17 | CS(=O)(=O)c1ccc(C(=O)Nc2cnc(-n3cccn3)nc2O)cc1 [Compound 3-16, N-(4-hydroxy-2-(1H-pyrazol-1-yl)pyrimidin-5-yl)-4-(methylsulfonyl)benzamide] | 0.02 to 0.1
18 | O=C(Nc1cnc(-n2cccn2)nc1O)c1ccccc1-c1ccccc1 [Compound 3-17, N-[4-hydroxy-2-(1H-pyrazol-1-yl)pyrimidin-5-yl]biphenyl-2-carboxamide] | 0.02 to 0.1
19 | O=C(Nc1cnc(-n2cccn2)nc1O)c1cccc(-c2ccccc2)c1 [Compound 3-18, N-[4-hydroxy-2-(1H-pyrazol-1-yl)pyrimidin-5-yl]biphenyl-3-carboxamide] | 0.02 to 0.1
20 | O=C(Nc1cnc(-n2cccn2)nc1O)c1ccc(-c2ccccc2)cc1 [Compound 3-19, N-[4-hydroxy-2-(1H-pyrazol-1-yl)pyrimidin-5-yl]biphenyl-4-carboxamide] | 0.0005 to 0.02
21 | O=C(Nc1cnc(-n2cccn2)nc1O)c1ccccc1Oc1ccccc1 [Compound 3-20, N-(4-hydroxy-2-(1H-pyrazol-1-yl)pyrimidin-5-yl)-2-phenoxybenzamide] | 0.02 to 0.1

Row | SMILES | IC50 [µM]
22 | O=C(Nc1cnc(-n2cccn2)nc1O)c1cccc(Oc2ccccc2)c1 [Compound 3-21, N-(4-hydroxy-2-(1H-pyrazol-1-yl)pyrimidin-5-yl)-3-phenoxybenzamide] | 0.0005 to 0.02
23 | O=C(Nc1cnc(-n2cccn2)nc1O)c1ccc(Oc2ccccc2)cc1 [Compound 3-22, N-(4-hydroxy-2-(1H-pyrazol-1-yl)pyrimidin-5-yl)-4-phenoxybenzamide] | 0.0005 to 0.02
24 | O=C(Cc1ccccc1Cl)Nc1cnc(-n2cccn2)nc1O [Compound 3-23, 2-(2-chlorophenyl)-N-(4-hydroxy-2-(1H-pyrazol-1-yl)pyrimidin-5-yl)acetamide] | 0.0005 to 0.02
25 | O=C(Cc1cccc(Cl)c1)Nc1cnc(-n2cccn2)nc1O [Compound 3-24, 2-(3-chlorophenyl)-N-(4-hydroxy-2-(1H-pyrazol-1-yl)pyrimidin-5-yl)acetamide] | 0.0005 to 0.02
26 | O=C(Cc1ccc(Cl)cc1)Nc1cnc(-n2cccn2)nc1O [Compound 3-25, 2-(4-chlorophenyl)-N-(4-hydroxy-2-(1H-pyrazol-1-yl)pyrimidin-5-yl)acetamide] | 0.0005 to 0.02
27 | N#Cc1cccc(CC(=O)Nc2cnc(-n3cccn3)nc2O)c1 [Compound 3-26, 2-(3-cyanophenyl)-N-(4-hydroxy-2-(1H-pyrazol-1-yl)pyrimidin-5-yl)acetamide] | 0.0005 to 0.02
28 | O=C(Cc1ccccc1C(F)(F)F)Nc1cnc(-n2cccn2)nc1O [Compound 3-27, 2-(2-(trifluoromethyl)phenyl)-N-(4-hydroxy-2-(1H-pyrazol-1-yl)pyrimidin-5-yl)acetamide] | 0.0005 to 0.02
29 | O=C(Cc1cccc(C(F)(F)F)c1)Nc1cnc(-n2cccn2)nc1O [Compound 3-28, 2-(3-(trifluoromethyl)phenyl)-N-(4-hydroxy-2-(1H-pyrazol-1-yl)pyrimidin-5-yl)acetamide] | 0.0005 to 0.02
30 | O=C(Cc1ccc(C(F)(F)F)cc1)Nc1cnc(-n2cccn2)nc1O [Compound 3-29, 2-(4-(trifluoromethyl)phenyl)-N-(4-hydroxy-2-(1H-pyrazol-1-yl)pyrimidin-5-yl)acetamide] | 0.0005 to 0.02
31 | COc1ccccc1CC(=O)Nc1cnc(-n2cccn2)nc1O [Compound 3-30, N-(4-hydroxy-2-(1H-pyrazol-1-yl)pyrimidin-5-yl)-2-(2-methoxyphenyl)acetamide] | 0.0005 to 0.02
32 | COc1cccc(CC(=O)Nc2cnc(-n3cccn3)nc2O)c1 [Compound 3-31, N-(4-hydroxy-2-(1H-pyrazol-1-yl)pyrimidin-5-yl)-2-(3-methoxyphenyl)acetamide] | 0.0005 to 0.02
33 | COc1ccc(CC(=O)Nc2cnc(-n3cccn3)nc2O)cc1 [Compound 3-32, N-(4-hydroxy-2-(1H-pyrazol-1-yl)pyrimidin-5-yl)-2-(4-methoxyphenyl)acetamide] | 0.0005 to 0.02
34 | CC(C(=O)Nc1cnc(-n2cccn2)nc1O)c1ccccc1 (stereo not drawn) [Compound 3-33, N-(4-hydroxy-2-(1H-pyrazol-1-yl)pyrimidin-5-yl)-2-phenylpropanamide] | 0.0005 to 0.02
35 | CCC(C(=O)Nc1cnc(-n2cccn2)nc1O)c1ccccc1 (stereo not drawn) [Compound 3-34, N-(4-hydroxy-2-(1H-pyrazol-1-yl)pyrimidin-5-yl)-2-phenylbutanamide] | 0.0005 to 0.02
36 | CC(C)C(C(=O)Nc1cnc(-n2cccn2)nc1O)c1ccccc1 (stereo not drawn) [Compound 3-35, N-(4-hydroxy-2-(1H-pyrazol-1-yl)pyrimidin-5-yl)-3-methyl-2-phenylbutanamide] | 0.02 to 0.1
37 | CCC(C)C(C(=O)Nc1cnc(-n2cccn2)nc1O)c1ccccc1 (stereo not drawn) [Compound 3-36, N-(4-hydroxy-2-(1H-pyrazol-1-yl)pyrimidin-5-yl)-3-methyl-2-phenylpentanamide] | 0.0005 to 0.02
38 | CC(C)(C(=O)Nc1cnc(-n2cccn2)nc1O)c1ccccc1 [Compound 3-37, N-(4-hydroxy-2-(1H-pyrazol-1-yl)pyrimidin-5-yl)-2-methyl-2-phenylpropanamide] | 0.0005 to 0.02
39 | O=C(Nc1cnc(-n2cccn2)nc1O)C1(c2ccccc2)CC1 [Compound 3-38, N-(4-hydroxy-2-(1H-pyrazol-1-yl)pyrimidin-5-yl)-1-phenylcyclopropanecarboxamide] | 0.02 to 0.1
40 | O=C(Cc1cccc2ccccc12)Nc1cnc(-n2cccn2)nc1O [Compound 3-39, N-(4-hydroxy-2-(1H-pyrazol-1-yl)pyrimidin-5-yl)-2-(naphthalen-1-yl)acetamide] | 0.0005 to 0.02
41 | O=C(Cc1ccc2c(c1)OCO2)Nc1cnc(-n2cccn2)nc1O [Compound 3-40, 2-(benzo[d][1,3]dioxol-5-yl)-N-(4-hydroxy-2-(1H-pyrazol-1-yl)pyrimidin-5-yl)acetamide] | 0.0005 to 0.02
42 | O=C(Cc1ccncc1)Nc1cnc(-n2cccn2)nc1O [Compound 3-41, N-(4-hydroxy-2-(1H-pyrazol-1-yl)pyrimidin-5-yl)-2-(pyridin-4-yl)acetamide] | 0.02 to 0.1
